Assay results reported in US20030170704A1, “Substance capable of controlling the inclusion of exon 10 of the tau gene, and its therapeutic use against tauopathies” (Max-Planck-Gesellschaft Zur Foerd Der Wissen. E.V., priority 1999, published 2003).

Columns and labels:
[1] = test system: tau exon 10 inclusion (SV10 minigene); experiment: RT-PCR of tau exon 10 minigene SV10 1:1 co-transfected with splicing regulator cDNA plasmids in COS cells; type: cell-based, human; settings: 1:1 co-transfection, FIG. 4
Protocol: Plasmid DNA was purified by cesium chloride banding (Sambrook et al., 1989). The plasmids obtained in Examples 1 and 2 were introduced into cells by the lipofection method (LT1, Panvera).
Plates (100 mm) that had reached ˜30% confluence were transfected with 10 μg of construct DNA or 5 μg of each plasmid for co-transfections. The medium was changed 16 h after transfection, without glycerol shock.
Total RNA was isolated 48 h post-transfection by the TRIzol method (Life Technologies). […]
The RT-PCR experiments were done twice with the polyA^+ RNAs and with total RNAs from three independent transfections, to ensure reproducibility. […] In FIGS. 1-4, the percent of the 10^+ isoform was calculated by scanning the bands from three independent transfections and measuring the areas under the curves (by the IPLab Gel program from Scanalytics).
RT-PCR was performed in a manner as described in Example 4 (using primer pair: INS1/INS3), except that-mammalian cells were analyzed which had been 1:1 co-transfected with tau exon 10 containing minigene constructs (denoted SV 10) and with plasmids containing cDNA of various plicing regulators. […]

[2] = test system: clk2 phosphorylation / exon 10 inclusion of the tau gene; experiment: Changing clk2 phosphorylation levels by kinase/phosphatase inhibitors; type: cell-based

Compound | effect on tau exon 10 inclusion (10+/10- isoform ratio by RT-PCR) [1] | controlled change of exon 10 inclusion of the tau gene via clk2 phosphorylation levels [2]
ASF/SF2: serine/arginine-rich (SR) protein splicing regulator, expressed from cDNA under the CMV promoter | inhibited | 
C=C1[C@@H](O)[C@@H]2O[C@]3(CC[C@H](/C=C/[C@@H](C)[C@@H]4CC(C)=C[C@@]5(O[C@H](C[C@@](C)(O)C(=O)O)CC[C@H]5O)O4)O3)CC[C@H]2O[C@@H]1[C@@H](O)C[C@H](C)[C@H]1O[C@@]2(CCCCO2)CC[C@H]1C [okadaic acid] |  | changing the clk2 phosphorylation levels
OC[C@H]1O[C@@H](n2cnc3cc(Cl)c(Cl)cc32)[C@H](O)[C@@H]1O [5,6-dichloro-1-b-D-ribofuranosylbenzimidazole] |  | changing the clk2 phosphorylation levels
